Here are results for nine compounds from ChEMBL document CHEMBL6182840, “A review of click chemistry in the synthesis of organophosphorus triazoles and their biological activities” (Eur J Med Chem, 2025).

In one assay the test system is HepG2. Put plainly: Cytotoxicity against human HepG2 cells assessed as reduction in cell viability by MTS assay. In kind it is functional, cell-based. On the technique in general: Tetrazolium assays rely on reduction of a dye to a coloured formazan, in cell work by metabolically active cells.
Assay [1] can be described thus: Cytotoxicity against human PBMC cells assessed as reduction in cell viability by MTS assay. It is filed as functional, cell-based.
A further assay relates to Hepatitis B virus. Put plainly: Antiviral activity against HBV infected in human Huh-7 cells assessed as inhibition of HBV DNA production at 10 uM relative to control. It is filed as functional.
For assay [2], the system named is MCF7. The assay can be described thus: Cytotoxicity against human MCF7 cells assessed as reduction in cell growth by MTT assay. It is filed as functional, cell-based.
Assay [3] relates to HCT-116. The assay can be described thus: Cytotoxicity against human HCT-116 cells assessed as reduction in cell growth by MTT assay. It is filed as functional, cell-based.
Assay [4] is described as follows: Cytotoxicity against human HEF cells assessed as reduction in cell growth by MTT assay. In kind it is functional, cell-based.
Assay [5] has as its system HCT-116. Put plainly: Cytotoxicity against human HCT-116 cells assessed as reduction in cell viability incubated for 72 hrs by MTT assay. To be noted: HCT-116, 72 h. It is filed as functional, cell-based.
Assay [6] deals with MCF7. Put plainly: Cytotoxicity against human MCF7 cells assessed as reduction in cell viability incubated for 72 hrs by MTT assay. It is filed as functional, cell-based. The following applies: MCF7, 72 h.
In another assay the test system is Caov-3 cell line. Put plainly: Cytotoxicity against human Caov-3 cell line assessed as reduction in cell viability incubated for 72 hrs by MTT assay. To be noted: Caov-3, 72 h. It is filed as functional, cell-based.
A further assay deals with A549. The assay can be described thus: Cytotoxicity against human A549 cells assessed as reduction in cell viability incubated for 72 hrs by MTT assay. In kind it is functional, cell-based. To be noted: A549, 72 h.
The test system of a further assay is PC-3. The assay can be described thus: Cytotoxicity against human PC-3 cells assessed as reduction in cell viability incubated for 72 hrs by MTT assay. It is filed as functional, cell-based. The following applies: PC-3, 72 h.
The target of assay [7] is T1, 4-galactosyl-N-acetylglucosaminide 3-alpha-L-fucosyltransferase FUT6 (Homo sapiens, UniProt P51993).
T1 sequence (P51993 whole entry): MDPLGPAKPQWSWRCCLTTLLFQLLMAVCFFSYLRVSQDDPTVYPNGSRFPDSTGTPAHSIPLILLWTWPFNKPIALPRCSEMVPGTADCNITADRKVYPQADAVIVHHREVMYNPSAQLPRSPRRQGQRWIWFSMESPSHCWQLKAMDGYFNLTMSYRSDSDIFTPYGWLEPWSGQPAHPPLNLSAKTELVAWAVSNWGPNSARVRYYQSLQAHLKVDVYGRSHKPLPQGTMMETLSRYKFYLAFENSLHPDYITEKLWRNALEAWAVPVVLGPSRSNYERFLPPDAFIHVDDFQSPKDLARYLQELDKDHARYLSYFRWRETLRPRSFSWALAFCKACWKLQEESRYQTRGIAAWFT
Put plainly: Inhibition of human FUT6.

Broadly, the IC50 is the midpoint of a concentration-inhibition curve. A word on the inhibition: it is the percentage by which the read-out fell short of the control. On to `CCCCCCCCCCCCCCCCOCCCOP(=O)(C/C=C(\C)Cn1cc(C(N)=O)nn1)OCOC(=O)OC(C)C` (stereo not given), for which the IC50 in the assay with HepG2 was found to be 66400 nM; in assay [1] it was 43100 nM. Besides, the inhibition at 10 µM in the assay with Hepatitis B virus worked out at 62%.

Turning to `CCOP(=O)(OCC)C(Cc1cn(CCN2C/C(=C\c3ccc([N+](=O)[O-])cc3)C(=O)/C(=C/c3ccc([N+](=O)[O-])cc3)C2)nn1)P(=O)(OCC)OCC`, the IC50 (in the assay with MCF7 [2]; in the assay with HCT-116 [3]; in [4]) was 5000 nM each time.

Consider `CCOP(=O)(CCCn1cc(CN2C/C(=C\c3ccc(C#N)cc3)C(=O)/C(=C/c3ccc(C#N)cc3)C2)nn1)OCC`, for which the IC50 with HCT-116 [5], with MCF7 [6], in the assay on Caov-3 cell line, with A549 and in the assay on PC-3 was 1500 nM each time.

For `CCOP(=O)(CCCCn1cc(CN2C/C(=C\c3ccc([N+](=O)[O-])cc3)C(=O)/C(=C/c3ccc([N+](=O)[O-])cc3)C2)nn1)OCC`, the IC50 in the assay with HCT-116 [5], in the assay with MCF7 [6], in the assay on Caov-3 cell line, with A549 and with PC-3 was 1500 nM throughout.

Consider `CCOP(=O)(CCCn1cc(CN2C/C(=C\c3ccc([N+](=O)[O-])cc3)C(=O)/C(=C/c3ccc([N+](=O)[O-])cc3)C2)nn1)OCC`, for which the IC50 in the assay with HCT-116 [5], in the assay on MCF7 [6], in the assay on Caov-3 cell line, in the assay with A549 and with PC-3 was 1500 nM throughout.

In [7], `Nc1nc2c(ncn2[C@@H]2O[C@H](COP(=O)(O)OP(=O)(O)OCc3cn(CCCCC(=O)NCc4ccc(-c5ccccc5)cc4)nn3)[C@@H](O)[C@H]2O)c(=O)[nH]1` showed an IC50 of 610 nM.

In the case of `CCOP(=O)(CCCCn1cc(CN2C/C(=C\c3ccc(C#N)cc3)C(=O)/C(=C/c3ccc(C#N)cc3)C2)nn1)OCC`, the IC50 in the assay with HCT-116 [5], in the assay with MCF7 [6], in the assay on Caov-3 cell line, in the assay with A549 and in the assay with PC-3 was 1500 nM in each case.

Take `CCOP(=O)(OCC)C(Cc1cn(CCN2C/C(=C\c3ccc(C#N)cc3)C(=O)/C(=C/c3ccc(C#N)cc3)C2)nn1)P(=O)(OCC)OCC`: the IC50 (in the assay on MCF7 [2]; with HCT-116 [3]; in [4]) was 5000 nM throughout.

On to `CCOP(=O)(CCCn1cc(CN2C/C(=C\c3ccc(F)cc3)C(=O)/C(=C/c3ccc(F)cc3)C2)nn1)OCC`, for which the IC50 in the assay on HCT-116 [5], with MCF7 [6], with Caov-3 cell line, with A549 and in the assay with PC-3 was 1500 nM each time.
